Test results taken from PubChem BioAssay (NCI).
Where “and” joins values, the source holds several entries; their conditions need not be identical. Equal values may be shown once.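 Protocol summary: plate cells (96-well), add compound at 5 concentrations, incubate 48 h, interpolate endpoints linearly. The concentration for 50% growth inhibition is given as GI50. The concentration for full growth arrest is given as TGI.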

Key:
Test in all cases: inhibition of tumour cell growth, NCI panel, 48 h
[1] = tested on: ACHN renal
[2] = tested on: HCT-116 colon
[3] = tested on: KM12 colon
[4] = tested on: M14 melanoma
[5] = tested on: NCI-H23 lung
[6] = tested on: OVCAR-3 ovarian
[7] = tested on: OVCAR-8 ovarian
[8] = tested on: RPMI-8226 leukemia
[9] = tested on: SK-MEL-28 melanoma
[10] = tested on: SNB-19 CNS

| SMILES | TGI [1] | TGI [2] | TGI [3] | TGI [4] | TGI [5] | TGI [6] | TGI [7] | TGI [8] | TGI [9] | TGI [10] | GI50 [1] | GI50 [3] | GI50 [4] | GI50 [5] | GI50 [7] | GI50 [8] | GI50 [9] | GI50 [10] | GI50 [2] | GI50 [6] |
| --- | --- | --- | --- | --- | --- | --- | --- | --- | --- | --- | --- | --- | --- | --- | --- | --- | --- | --- | --- | --- |
| C[C@H]1/C(=C/C(=O)OCCN(C)C)CC[C@H]2[C@H]1C(=O)C[C@H]1C(C)(C)[C@@H](O)CC[C@]21C | > 100 µM | > 100 µM | > 100 µM | > 100 µM | > 100 µM | > 100 µM | > 100 µM | > 100 µM | > 100 µM | > 100 µM | – | – | – | – | – | – | – | – | – | – |
| O=S(=O)([O-])c1ccc(N=Cc2ccccc2[O-])cc1.O=S(=O)([O-])c1ccc(N=Cc2ccccc2[O-])cc1.[Co+2] | > 100 µM | – | > 100 µM | > 100 µM | > 100 µM | – | > 100 µM | > 100 µM | > 100 µM | > 100 µM | > 100 µM | > 100 µM | 79.6 µM | > 100 µM | > 100 µM | 96.8 µM | 59.5 µM | > 100 µM | – | – |
| Cc1nc2c(c(N3CCCc4ccccc43)n1)CCC2 | > 100 µM | 20.6 µM | > 100 µM | – | > 100 µM | – | > 100 µM | 3.47 µM | > 100 µM | > 100 µM | < 0.01 µM | < 0.01 µM | – | < 0.01 µM | 0.0112 µM | < 0.01 µM | 11.7 µM | < 0.01 µM | < 0.01 µM | – |
| COC(=O)c1ccccc1N(C(=O)c1ccccc1)c1ccccc1C | > 100 µM | > 100 µM | > 100 µM | 73.1 µM | 79.3 µM | > 100 µM | > 100 µM | – | > 100 µM | > 100 µM | – | – | – | – | – | – | – | – | – | – |
| CC(CC(=O)N1C(=O)C(C)(C)[C@@H](O)[C@H]1CC(C)C(Cl)(Cl)Cl)C(Cl)(Cl)Cl (some centres undefined) | > 100 µM | > 100 µM | > 100 µM | > 100 µM | – | > 100 µM | > 100 µM | > 100 µM | – | > 100 µM | – | – | – | – | – | – | – | – | – | – |
| C=C(CO)CC(O)c1cc(OC)ccc1OC (centres undefined) | > 100 µM | – | > 100 µM | > 100 µM | – | > 100 µM | > 100 µM | > 100 µM | > 100 µM | > 100 µM | – | – | – | – | – | – | – | – | – | – |
| CC(C)C12Cc3c(ccc4ccccc34)OC1(C)Oc1ccc3ccccc3c1C2 (centres undefined) | > 100 µM | > 100 µM | > 100 µM | > 100 µM | > 100 µM | > 100 µM | > 100 µM | – | – | > 100 µM | – | – | – | – | – | – | – | – | – | – |
| Cc1n[nH]c(=S)n(C)c1=S | > 100 µM | > 100 µM | – | > 100 µM | > 100 µM | > 100 µM | > 100 µM | > 100 µM | > 100 µM | > 100 µM | – | – | – | – | – | – | – | – | – | – |
| CCCc1n(Cc2ccc3ccccc3c2)cc[n+]1Cc1ccc2ccccc2c1 | 14.2 µM | 2.17 µM | 2.38 µM | 2.53 µM | 2.51 µM | – | – | 1.67 µM | 2.52 µM | 2.26 µM | 3.87 µM | 1.01 µM | 1.1 µM | 0.521 µM | – | 0.399 µM | 1.06 µM | 0.869 µM | 0.971 µM | – |
| Cc1ccc(Nc2nccc(N(C)c3ccc4c(C)n(C)nc4c3)n2)cc1S(N)(=O)=O | > 100 µM | > 100 µM | > 100 µM and > 10 µM and 27 µM | – | > 100 µM and > 10 µM and 93.1 µM | > 100 µM and > 10 µM and 77.9 µM | > 100 µM | > 100 µM and > 10 µM and 31.6 µM | > 100 µM and > 10 µM and 84.2 µM | > 100 µM | 4.08 µM and 3.12 µM and 4.98 µM | 5.01 µM and 2.6 µM and 5.56 µM | – | 4.03 µM and 2.92 µM and 6.49 µM | 4.8 µM and 3.61 µM and 5.04 µM | 10.8 µM and 2.61 µM and 6.49 µM | – | – | 3.49 µM and 1.7 µM and 5.44 µM | 7.93 µM and 6.42 µM and 15.2 µM |
| NCCc1ccc(S(=O)(=O)F)cc1 | > 100 µM | > 100 µM | > 100 µM | > 100 µM | > 100 µM | 78.1 µM | > 100 µM | – | > 100 µM | > 100 µM | 45.9 µM | > 100 µM | > 100 µM | > 100 µM | > 100 µM | – | > 100 µM | > 100 µM | 53.7 µM | 31.1 µM |
| CC(C)N(O)C(=N)c1ccccc1 | – | > 100 µM | > 100 µM | > 100 µM | > 100 µM | – | > 100 µM | – | > 100 µM | > 100 µM | – | – | – | – | – | – | – | – | – | – |
| O=C(O)/C(Cl)=C(\Cl)C(=O)c1ccccc1 | > 100 µM | > 100 µM | > 100 µM | > 100 µM | > 100 µM | > 100 µM | > 100 µM | – | > 100 µM | > 100 µM | – | – | – | – | – | – | – | – | – | – |
| O=C(/C=C\c1cccc2ccccc12)c1ccc(F)cc1 | 30.8 µM | 26.8 µM | 28.8 µM | 29.9 µM | 45.1 µM | 30.9 µM | 28.4 µM | – | 26.4 µM | 31 µM | – | – | – | – | – | – | – | – | – | – |
